Experimental data reported in patent US20230089524A1, “COMPOSITIONS FOR USE IN THE INHIBITION OF DIHYDROOROTATE DEHYDROGENASE” (OHIO STATE INNOVATION FOUNDATION, priority 2019, published 2023).
Like-named read-outs stand apart in the source and are kept apart here.

What was measured:
h-DHODH = molecular target: T1, h-DHODH (Homo sapiens, UniProt Q02127); assay: DHODH enzymatic assay (DCIP reduction at 600 nm); type: biochemical; conditions: recombinant human enzyme, 25° C.
T1 construct: made in house
T1 sequence (Q02127 whole entry): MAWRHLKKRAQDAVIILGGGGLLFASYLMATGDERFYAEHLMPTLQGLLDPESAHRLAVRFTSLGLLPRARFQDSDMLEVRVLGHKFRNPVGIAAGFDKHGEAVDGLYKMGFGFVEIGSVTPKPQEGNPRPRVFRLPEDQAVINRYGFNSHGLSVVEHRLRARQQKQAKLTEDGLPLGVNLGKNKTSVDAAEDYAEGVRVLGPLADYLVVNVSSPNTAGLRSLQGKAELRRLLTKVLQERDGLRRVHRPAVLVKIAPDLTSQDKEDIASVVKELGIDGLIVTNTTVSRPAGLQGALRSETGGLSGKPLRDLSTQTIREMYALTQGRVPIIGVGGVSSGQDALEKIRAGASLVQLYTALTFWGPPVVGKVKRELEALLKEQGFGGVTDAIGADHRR
Procedure: DHODH Enzymatic Assay: DHODH activity was determined at 25° C. following the reduction of 2,6-dichloroindophenol sodium salt (DCIP) at 600 nm (ε=18 800 M^−1 cm^−1) on a spectrophotometer. The reaction medium used contained 50 mM Tris-HCl, pH 8.0, 0.1% Triton X-100, 0.1 mM LDHO, 0.025 mM CoQ1, and 0.06 mM DCIP. The reaction was started by addition of the enzyme. The inhibitory potency of the compounds was evaluated by measuring the initial velocity of the reaction either in the absence or in the presence of the compounds at the indicated concentrations. The DHODH enzyme used was the recombinant human enzyme prepared as previously described (Hélène Munier-Lehmann, et al., J. Med. Chem. 2015, 58:860-877).
(§1) Biological Activity. Cell proliferation assays were carried out using the MTS assay described herein using an AML cell line (i.e., OCI-AM L3) as described above. The assays were carried out in a blinded fashion. Assays were also carried out to assess the effect of representative disclosed compounds on DHODH activity.

OCI-AML3 cell line = assay: MTS assay for cell growth/viability; type: cell-based; conditions: Homo sapiens
Procedure: MTS assay for cell growth/viability: Mitochondrial activity was measured to determine cell proliferation using an MTS assay (tetrazolium dye 3-[4,5-dimethylthiazol-2-yl]-2,5-diphenyl-tetrazolium bromide). Metabolically active cells convert MTS tetrazolium salt into a purple formazan product that is soluble in tissue culture medium. The amount of formazan measured at 490 nm absorbance is proportional to the number of proliferating cells. MTS assays in AML cell lines were carried out with 20K cells plated per well in 96-well plates with Cpd3 or brequinar in a dose series ranging from 0.0001 to 10 μM. Triplicate wells were set up for each condition. At 96 hours, the MTS reagent was added and after approximately 4 hours the plates were read in a spectrophotometer.
as §1

[1] = OCI-AML-3, 96 hours, read-out: OCI-AML3 cell line IC50
[2] = OCI-AML-3, read-out: growth arrest in the OCI-AML3 cell line, IC50

Row | SMILES | IC50 (h-DHODH) | IC50 (OCI-AML3 cell line; [1]) | IC50 (OCI-AML3 cell line; [2])
1 | CCOc1ccc(-c2csc(-c3cc(C(=O)O)c4cc(F)ccc4n3)c2)cc1 [Cpd1, 2-(4-(4-ethoxyphenyl)thiophen-2-yl)-6-fluoroquinoline-4-carboxylic acid] | 0.058 µM | 0.413 µM | 0.41 to 0.79 µM
2 | CCOc1ccc(-c2ccc(-c3cc(C(=O)O)c4cc(F)ccc4n3)s2)cc1 [Cpd2, 2-(5-(4-ethoxyphenyl)thiophen-2-yl)-6-fluoroquinoline-4-carboxylic acid] | 0.212 µM | 0.79 µM | 0.41 to 0.79 µM
3 | CCOc1cccc(-c2csc(-c3cc(C(=O)O)c4cc(F)ccc4n3)c2)c1 [Cpd3, 2-(4-(3-ethoxyphenyl)thiophen-2-yl)-6-fluoroquinoline-4-carboxylic acid] | 0.2 µM | 10.9 µM | 
4 | CCOc1cccc(-c2ccc(-c3cc(C(=O)O)c4cc(F)ccc4n3)s2)c1 [Cpd4, 2-(5-(3-ethoxyphenyl)thiophen-2-yl)-6-fluoroquinoline-4-carboxylic acid] | 0.223 µM | 3.35 µM | 
5 | CCOc1ccc(-c2cnc(-c3cc(C(=O)O)c4cc(F)ccc4n3)s2)cc1 [Cpd6, 2-(5-(4-ethoxyphenyl)thiazol-2-yl)-6-fluoroquinoline-4-carboxylic acid] | 13.9 µM | > 10 µM | 

Now from value to compound:

Row | IC50 (h-DHODH) | IC50 (OCI-AML3 cell line; [1]) | IC50 (OCI-AML3 cell line; [2]) | SMILES
6 | 0.524 µM | 7.41 µM |  | CCOc1ccc(-c2csc(-c3cc(C(=O)O)c4cc(F)ccc4n3)n2)cc1 [Cpd5, 2-(4-(4-ethoxyphenyl)thiazol-2-yl)-6-fluoroquinoline-4-carboxylic acid]
7 | 0.085 µM | 4.92 µM |  | CCOc1ccc(-c2nc(-c3cc(C(=O)O)c4cc(F)ccc4n3)cs2)cc1 [Cpd7]
8 | 0.472 µM | > 10 µM |  | CCOc1ccc(-c2ncc(-c3cc(C(=O)O)c4cc(F)ccc4n3)s2)cc1 [Cpd8, 2-(2-(4-ethoxyphenyl)thiazol-5-yl)-6-fluoroquinoline-4-carboxylic acid]
